According to US20120107932A1, “PRRS-VIRUS RECEPTOR AND ITS INHIBITOR” (priority 2009, published 2012):

What was measured:
NMM-II ATPase = conditions: vertebrate cells; Straight et al. Science 2003; cited from earlier work
MA-104 and PAM cells [1] = assay: Effects of blebbistatin on cells (cytopathic effects, CPE); format: cell-based
MA-104 and PAM cells [2] = assay: as above; format: cell-based; conditions: Table 4, Marc-145 and PAM cells
Description: Marc-145 and PAM cells (10^5 cells/ml) are cultured on DMEM medium (containing 100 U/ml penicillin, 50 μg/ml streptomycin sulphate, 50 μg/ml gentamycin and 10% calf serum) in an incubator under 37[…] and 5% CO2 to form monolayer. Dissolve (±)-blebbistatin, (S)-(−)-blebbistatin and (R)-(+)-blebbistatin (purchased from Tocris Cookson, Inc. [US]) in DMSO, then perform multiple-proportion dilution with PBS, add a monolayer culture plate and continuously culture it to observe cytopathic effects (CPE). Under a conventional microscope, CPE is observed as rough cell surface, strong refractivity, and finally cell shedding. […] Therefore, (+)-blebbistatin can be used as a PRRSV-receptor blocker.

PRRSV = assay: PRRSV-receptor blocking test (CPE caused by PRRSV in Marc-145 and PAM cells); format: cell-based; parameters: key to Inhibition levels of CPE: “−” means no CPE; “+” means CPE in 25% cells; “++” means CPE in 50% cells; “+++” means CPE in above 75% cells; conditions: for Inhibition levels of CPE: PRRSV 10^3TCID50/ml, Marc-145 and PAM cells
Description: Marc-145 and PAM cells (10^5 cells/ml) are cultured on DMEM medium (containing 100 U/ml penicillin, 50 μg/ml streptomycin sulphate, 50 μg/ml gentamycin and 10% calf serum) in an incubator under 37 □ and 5% CO2 to form monolayer. Dissolve the NMHC II-A protein, artificially synthesized polypeptides, serum antibodies and (+)-blebbistatin obtained by using the methods of Implementation Examples 1, 2 and 4 in the DMEM medium; after de-germing by filtration, mix with PRRSV strains under different fixation concentrations (10^3TCID50/ml) and incubate an hour, and then add the cells above; perform eight repetitions for each dilution; after adsorption at 37 °C for an hour, remove the mixture, add DMEM medium and culture continuously; and observe CPE daily. The CPE manifestations caused by PRRSV infection include rough cell surface, strong refractivity, and finally cell shedding. The results in Table 5 illustrate the CPE inhibition levels of the NMHC II-A protein, artificially synthesized polypeptides, serum antibodies and (+)-blebbistatin under the each-well concentration of μg, μg, μL and μM in turn. The judgment results of cell CPE are expressed as follows: “−” means no CPE, “+” means CPE in 25% cells, “++” means CPE in 50% cells, and “+++” means CPE in above 75% cells.

NMM-II = conditions: Straight et al. Science 2003; cited from earlier work
MA-104 and PAM cells [3] = assay: Indirect immunofluorescence assay (IFA), serum antibodies binding to cells; format: cell-based; conditions: serum of mice after third immunization with the named antigen
Description: Indirect immunofluorescence assay (IFA): After dilution, combine the mouse anti-NMHC II-A protein and anti-polypeptide antibodies after immunization three times with MA-104 and PAM monolayer cells for 0.5-2 hours, then bind the goat anti-mouse IgG testing antibody labeled with fluorescence to the cells.

[4] = dilution 1/40, MA-104 and PAM cells
[5] = dilution 1/80, MA-104 and PAM cells
[6] = dilution 1/160, MA-104 and PAM cells
[7] = dilution 1/320, MA-104 and PAM cells

Row | Compound | blebbistatin causing CPE or not (Yes or No) (MA-104 and PAM cells [1]; 1 μM) | blebbistatin causing CPE or not (Yes or No) (MA-104 and PAM cells [1]; 2 μM) | blebbistatin causing CPE or not (Yes or No) (MA-104 and PAM cells [1]; 5 μM) | blebbistatin causing CPE or not (Yes or No) (MA-104 and PAM cells [1]; 10 μM) | blebbistatin causing CPE or not (Yes or No) (MA-104 and PAM cells [1]; 20 μM) | blebbistatin causing CPE or not (Yes or No) (MA-104 and PAM cells [1]; 50 μM) | blebbistatin causing CPE or not (Yes or No) (MA-104 and PAM cells [1]; 100 μM) | effect on cell proliferation and CPE (MA-104 and PAM cells [2]) | Inhibition levels of CPE (PRRSV; 1 μg per well) | Inhibition levels of CPE (PRRSV; 2 μg per well) | Inhibition levels of CPE (PRRSV; 5 μg per well) | Inhibition levels of CPE (PRRSV; 10 μg per well) | Inhibition levels of CPE (PRRSV; 20 μg per well) | Inhibition levels of CPE (PRRSV; 50 μg per well) | Inhibition levels of CPE (PRRSV; 100 μg per well) | inhibition of the cell CPE caused by PRRSV (PRRSV; at 2 μg-100 μg/well) | Cell-bound serum (with or without fluorescence) (MA-104 and PAM cells [3]; [4]) | Cell-bound serum (with or without fluorescence) (MA-104 and PAM cells [3]; [5]) | Cell-bound serum (with or without fluorescence) (MA-104 and PAM cells [3]; [6]) | Cell-bound serum (with or without fluorescence) (MA-104 and PAM cells [3]; [7]) | further results
1 | Cc1ccc2c(c1)C(=O)C1(O)CCN(c3ccccc3)C1=N2 (racemic) [(±)-blebbistatin] | Yes | Yes | Yes | Yes | Yes | Yes | Yes | can inhibit cell proliferation and cause CPE |  |  |  |  |  |  |  |  |  |  |  |  | inhibition of NMM-II ATPase activity (NMM-II ATPase): selective inhibitor
2 | Cc1ccc2c(c1)C(=O)[C@@]1(O)CCN(c3ccccc3)C1=N2 [(+)-blebbistatin, (R)-(+)-blebbistatin, reference compound] | No | No | No | No | No | No | No | does not inhibit cell proliferation and does not cause CPE |  |  |  |  |  |  |  |  |  |  |  |  | Inhibition levels of CPE (PRRSV; 1 μM per well): + (“+” means CPE in 25% cells); Inhibition levels of CPE (PRRSV; 2 μM per well): −; Inhibition levels of CPE (PRRSV; 5 μM per well): −; Inhibition levels of CPE (PRRSV; 10 μM per well): −; Inhibition levels of CPE (PRRSV; 20 μM per well): −; Inhibition levels of CPE (PRRSV; 50 μM per well): −; Inhibition levels of CPE (PRRSV; 100 μM per well): −; inhibition of the cell CPE caused by PRRSV (PRRSV; at 2 μM-100 μM/well): fully inhibit; blocking of PRRSV strains from infecting cells (PRRSV; classic American strains (VR-2332), Chinese isolates (Ch-1a), highly pathogenic strains (JXA-1)): block the classic American strains, Chinese isolates and highly pathogenic strains of PRRSV from infecting cells; inhibition of NMM-II-dependent cellular division and proliferation (NMM-II): does not inhibit
3 | Cc1ccc2c(c1)C(=O)[C@]1(O)CCN(c3ccccc3)C1=N2 [(S)-(−)-blebbistatin] | Yes | Yes | Yes | Yes | Yes | Yes | Yes | can inhibit cell proliferation and cause CPE |  |  |  |  |  |  |  |  |  |  |  |  | 
4 | Polypeptide (Seq ID No: 2): NMHC II-A artificial polypeptide, amino-acid sequence Seq ID No: 2 (GAGDGSDEE) |  |  |  |  |  |  |  |  | ++ (“++” means CPE in 50% cells) | − | − | − | − | − | − | fully inhibit | Yes | Yes | Yes | Yes | 
5 | Polypeptide (Seq ID No: 3): NMHC II-A artificial polypeptide, amino-acid sequence Seq ID No: 3 (GAGDGSDEEVDGKA) |  |  |  |  |  |  |  |  | ++ (“++” means CPE in 50% cells) | − | − | − | − | − | − | fully inhibit | Yes | Yes | Yes | Yes | 
6 | Polypeptide (Seq ID No: 4): NMHC II-A artificial polypeptide, amino-acid sequence Seq ID No: 4 (KADGAEAKPAE) |  |  |  |  |  |  |  |  | ++ (“++” means CPE in 50% cells) | − | − | − | − | − | − | fully inhibit | Yes | Yes | Yes | Yes | 
